Values after ≈ are worked out from the molar mass of the structure shown. Read-outs that look alike come from different tables or passages of the source.
How the values were obtained:
Assay type in all cases: cell-based
SW620 cells = experiment: Cell proliferation assay (SRB), SW620; details: EGFR −, Her-2 −, 2 days, SRB; for IC50: Homo sapiens, SW-620, 48 h, read-out: CELL IC50 SW620
Her-2 = molecular target: T1, Her-2 (Homo sapiens, UniProt P04626); experiment: Her-2 receptor phosphorylation in BT474 cells (immunoblot); details: Her-2 phosphorylation, 3 hours at 37° C., immunoblot; read-out: IC50 receptor phosphorylation BT474 (converted)
T1 construct: For Her-2 and EGFR phosphorylation assays, cells (BT474 and A431, respectively) were incubated with various concentrations of compound; endogenous in cells; host or cells: BT474

SK-Br-3 cells = experiment: Cell proliferation assay (SRB), SK-Br-3; details: EGFR −, Her-2 +++, 2 days, SRB; for IC50: Homo sapiens, SK-BR-3, 48 h, read-out: CELL IC50 SKBr3
MDA-MB-435 cells = experiment: Cell proliferation assay (SRB), MDA-MB-435; details: EGFR −, Her-2 −, 2 days, SRB; for IC50: Homo sapiens, MDA-MB-435, 48 h, read-out: CELL IC50 MDA-MB-435
A431 cells = experiment: Cell proliferation assay (SRB), A431; details: for IC50: Homo sapiens, A-431, 48 h, read-out: CELL IC50 A431
[1] = molecular target: mouse fibroblast cell line transfected with the HER-2 oncogene (3T3/neu) (UniProt P04626, cells depend on it, species not given); experiment: Cell proliferation assay (SRB), 3T3/neu; details: EGFR −, Her-2 +++, 2 days, SRB; for GI50: read-out: CELL IC50 3T3/NEU (converted)

Compound	IC50 (SW620 cells)	IC50 (Her-2)	IC50 (SK-Br-3 cells)	IC50 (MDA-MB-435 cells)	IC50 (A431 cells)	GI50 [1]	CELL IC50 SW620 (SW620 cells)	CELL IC50 SKBr3 (SK-Br-3 cells)	CELL IC50 MDA-MB-435 (MDA-MB-435 cells)	CELL IC50 A431 (A431 cells; EGFR +++, Her-2 +, 2 days, SRB)	CELL IC50 3T3/NEU [1]	IC50 (A431 cells; EGFR +++, Her-2 +, 2 days, SRB)
COc1cc2ncc(C#N)c(Nc3ccc(Sc4nccn4C)c(Cl)c3)c2cc1NC(=O)/C=C/CN(C)C [Example 37, (2E)-N-[4-({3-chloro-4-[(1-methyl-1H-imidazol-2-yl)sulfanyl]phenyl}amino)-3-cyano-7-methoxy-6-quinolinyl]-4-(dimethylamino)-2-butenamide]	0.43 µg/mL (≈ 0.785 µM)	< 1820 nM	0.0004 µg/mL (≈ 0.00073 µM)	0.43 µg/mL (≈ 0.785 µM)	0.02 µg/mL (≈ 0.0365 µM)	36.5 nM						
(E)-N-{4-[3-chloro-4-(1H-imidazol-1-yl)anilino]-3-cyano-7-methoxy-6-quinolinyl}-azol-1-yl)anilino]-4-(dimethylamino)-2-)anilino-2-butenamide [Example 43]							1.45 µg/mL	0.32 µg/mL	0.57 µg/mL	0.51 µg/mL	1.46 µg/mL	
COc1cc2ncc(C#N)c(Nc3ccc(Sc4nccn4C)c(Cl)c3)c2cc1N [Example 36, 6-amino-4-({3-chloro-4-[(1-methyl-1H-imidazol-2-yl)sulfanyl]phenyl}amino)-7-methoxy-3-quinolinecarbonitrile]	3.16 µg/mL (≈ 7.23 µM)		0.011 µg/mL (≈ 0.0252 µM)	0.39 µg/mL (≈ 0.893 µM)		2430 nM						3.04 µg/mL (≈ 6.96 µM)
CCOc1cc2ncc(C#N)c(Nc3ccc(Sc4nc(-c5ccccc5)cs4)c(C(F)(F)F)c3)c2cc1N [Example 68, 6-Amino-7-ethoxy-4-[4-(4-phenyl-thiazol-2-ylsulfanyl)-3-trifluoromethyl-phenylamino]-quinoline-3-carbonitrile]	3.1 µg/mL (≈ 5.5 µM)		0.943 µg/mL (≈ 1.67 µM)	2.5 µg/mL (≈ 4.44 µM)		4470 nM						> 5 µg/mL
CCOc1cc2ncc(C#N)c(Nc3ccc(Cn4ccnc4)c(Cl)c3)c2cc1[N+](=O)[O-] [Example 60, 4-[3-chloro-4-(1H-imidazol-1-ylmethyl)anilino]-7-ethoxy-6-nitro-3-quinolinecarbonitrile]	> 5 µg/mL		2.44 µg/mL (≈ 5.44 µM)	> 5 µg/mL		> 11100 nM						> 5 µg/mL
CCOc1cc2ncc(C#N)c(Nc3ccc(Sc4nc(-c5ccccc5)cs4)c(C(F)(F)F)c3)c2cc1NC(=O)/C=C/CN(C)C [Example 69, (E)-N-{3-cyano-7-ethoxy-4-[4-[(4-phenyl-1,3-thiazol-2-yl)sulfanyl]-3-(trifluoromethyl)anilino]-6-quinolinyl}-4-(dimethylamino)-2-butenamide]	0.6 µg/mL (≈ 0.889 µM)		> 5 µg/mL	0.3 µg/mL (≈ 0.445 µM)		622 nM						0.3 µg/mL (≈ 0.445 µM)
